Consider 2 compounds from patent US4665092A, “Styrene derivatives, their use as antiallergic agents and intemediate epoxides for their synthesis” (Ortho Pharmaceutical Corporation, priority 1985, dated 1987).

A short description of the test: Anti-allergic / anti-inflammatory activity of the invention compounds; the test is not specified (5-lipoxygenase inhibition in RBL-1 cells and active lung anaphylaxis in guinea-pigs are described). As to conditions: no IC50 or percent inhibition printed. The procedure:
The compounds of the invention of formulae (I) and (II) may be used as pharmaceutical agents in the treatment of inflammation and/or allergic reactions. […] Such testing procedures were carried out on compounds of the invention as described below:
Rat basophilic leukemia cells (RBL-1) were grown in Eagle's Minimal Essential Medium containing 10% fetal calf serum, 5% calf serum, 1% glutamine and 50 mg/L gentamycin and were maintained at 37° C. in a atmosphere containing 5% CO2. Exponentially growing cells were harvested by centrifugation at 400xg for 10 minutes at 4° C. and were washed once with Dulbecco's phosphate buffered saline containing 0.87 mM CaCl2. The cells were resuspended in the same buffer at a concentration of 1.85×10^7 cells/ml. […]
In order to isolate the Δ5 -lipoxygenase product ^14 C-5-HETE that was formed from arachidonic acid, each assay tube was extracted once with 6 volumes of anhydrous diethyl ether. In most assays, the recovery of product was estimated by determining the total amount of radioactivity recovered after extraction. In the remaining assays the recovery of ^14 C-5-HETE was monitored by addition of trace quantities of ^3 H-5-HETE (New England Nuclear) prior to extraction. […] The amount of ^14 C-5-HETE presented was quantitated by liquid scintillation counting in Aquasol II (New England Nuclear) and corrected for recovery. […]

SMILES strings stand for the structures.

Take `O[C@@H](CCCCOC1CCCCO1)[C@@H](/C=C/c1ccccc1)Sc1ccccc1` (stereo partly drawn) [Example 1g, (3R,4S)-4-Hydroxy-1-phenyl-3-phenylthio-8-(2-tetrahydropyranyloxy)-1(E)-octene]: the “activity of the compound (statement in words, figures not given)” value is on record as “Particularly active”.
For `CC(C)=CCC[C@](C)(O)[C@@H](/C=C\C=C\c1ccccc1)Sc1ccccc1` [Example 7, (5R,6S) 1-Phenyl-5-phenylthio-6-hydroxy-6,10-dimethylundeca-(1E,3Z,9)-triene Monoh ydrate] the value was “Particularly active”.
